Measured values reported in US20250154169A1, “COMPOUNDS AND METHODS FOR MODULATING SPLICING” (REMIX THERAPEUTICS INC., priority 2021, published 2025).
Where two headings read alike, the source gives them in different places.

Key:
Assay type in all cases: cell-based, human
HTT mRNA [1] = assay: Splicing RT-qPCR assay, HTT canonical (CJ) and alternative (AJ) junction mRNA; details: Homo sapiens, A673 or K562 cells, 24 hours compound treatment; for IC50: 24 h, read-out: HTT CJ (IC50, decrease in canonical junction mRNA); for AC50: read-out: HTT AJ (AC50, increase in alternative junction mRNA)
How it was run: (§1)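 A673 or K562 cells were treated 24 h at 37 °C with an 11-point 3-fold compound dilution series (top 10 uM, DMSO ≤0.25%). Lysates went to one-step RT-qPCR measuring canonical (CJ) and alternative-exon (AJ) junction transcripts, normalized to GAPDH, GUSB or PPIA.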

MYB mRNA = assay: Splicing RT-qPCR assay, MYB canonical (CJ) and alternative (AJ) junction mRNA; details: Homo sapiens; for AC50: read-out: MYB AJ (AC50, increase in alternative junction mRNA)
How it was run: as §1

SMN2 mRNA = assay: Splicing RT-qPCR gene panel, SMN2 canonical junction (CJ) mRNA; details: Homo sapiens, Tables 4A/4B, read-out: SMN2 (IC50, decrease in CJ mRNA, gene panel)
Description: (§2) Compounds described herein were used to modulate RNA transcript abundance in cells. The expression of a target mRNA was measured by detecting the formation of an exon-exon junction in the canonical transcript (CJ). A compound mediated exon-inclusion event was detected by observing an increase in formation of a new junction with an alternative exon (AJ). Real-time qPCR assays were used to detect these splicing switches and interrogate the potency of various compounds towards different target genes. A high-throughput real time quantitative PCR (RT-qPCR) assay was developed to measure these two isoforms of the mRNA (CJ and AJ) for exemplary genes, such as HTT, SMN2, and MYB, together with a control housekeeping gene, GAPDH or GUSB or PPIA, used for normalization. Briefly, the A673 or K562 cell line was treated with various compounds described herein (e.g., compounds of Formula (I)). After treatment, the levels of the HTT, MYB, or SMN2 mRNA targets were determined from each sample of cell lysate by cDNA synthesis followed by qPCR.
(§3) The A673 cell line was cultured in DMEM with 10% FBS. Cells were diluted with full growth media and plated in a 96-well plate (15,000 cells in 100 ul media per well). The plate was incubated at 37° C. with 5% CO2 for 24 hours to allow cells to adhere. An 11-point 3-fold serial dilution of the compounds was made in DMSO then diluted in media in an intermediate plate. Compounds were transferred from the intermediate plate to the cell plate with the top dose at a final concentration of 10 uM in the well. Final DMSO concentration was kept at or below 0.25%. The cell plate was returned to the incubator at 37° C. with 5% CO2 for an additional 24 hours.
(§4) The K562 cell line was cultured in IMDM with 10% FBS. For K562, cells were diluted with full growth media and plated in either a 96-well plate (50,000 cells in 50 uL media per well) or a 384-well plate (8,000-40,000 cells in 45 uL media per well). An 11-point 3-fold serial dilution of the compounds were made in DMSO then diluted in media in an intermediate plate. Compound was transferred from the intermediate plate to the cell plate with the top dose at a final concentration of 10 uM in the well. Final DMSO concentration was kept at or below 0.25%. Final volume was 100 uL for 96-well plate and 50 uL for 384-well plate. The cell plate was then placed in an incubator at 37° C. with 5% CO2 for 24 hours.
(§5) The cells were then gently washed with 50 uL-100 uL cold PBS before proceeding to addition of lysis buffer. 30 uL-50 uL of room temperature lysis buffer with DNAse I (and optionally RNAsin) was added to each well. Cells were shaken/mixed thoroughly at room temperature for 5-10 minutes for lysis to take place and then 3 uL-5 uL of room temperature stop solution was added and wells were shaken/mixed again. After 2-5 minutes, the cell lysate plate was transferred to ice for RT-qPCR reaction setup. The lysates could also be frozen at −80° C. for later use.
(§6) In some cases, a direct lysis buffer was used. An appropriate volume of 3× lysis buffer (10 mM Tris, 150 mM NaCl, 1.5%-2.5% Igepal and 0.1-1 U/uL RNAsin, pH 7.4) was directly added to either K562 or A673 cells in media and mixed by pipetting 3 times. The plates were then incubated at room temperature with shaking/rocking for 20-50 minutes to allow for lysis to take place. After this time, the cell lysate plate was transferred to ice to set up for the RT-qPCR reactions. The lysates could also be frozen at −80° C. for later use.
(§7) To set up 10 uL RT-qPCR reactions, cell lysates were transferred to 384-well qPCR plates containing the master mix according to the table below. The plates were sealed, gently vortexed, and spun down before the run. The volumes were adjusted accordingly in some instances where the reaction was carried in 20 μL. The table below summarizes the components of the RT-qPCR reactions:
(§8) The RT-qPCR reaction was performed using a QuantStudio (ThermoFisher) under the following fast cycling conditions. […]

Target C mRNA = assay: Splicing RT-qPCR gene panel, Target C canonical junction (CJ) mRNA; details: Homo sapiens, Tables 4A/4B, read-out: Target C (IC50, decrease in CJ mRNA, gene panel)
Description: as §2, §3, §4, §5, §6, §7, §8

HTT mRNA [2] = assay: Splicing RT-qPCR gene panel, HTT canonical junction (CJ) mRNA; details: Homo sapiens, Tables 4A/4B, read-out: HTT (IC50, decrease in CJ mRNA, gene panel)
Description: as §2, §3, §4, §5, §6, §7, §8

[3] = 24 h, A673 or K562 cells, 24 hours compound treatment, RT-qPCR
[4] = 24 h, A673 or K562 cells, 24 hours compound treatment, RT-qPCR, read-out: MYB CJ (IC50, decrease in canonical junction mRNA)
[5] = Tables 4A/4B, canonical junction qPCR panel, read-out: MYB (IC50, decrease in CJ mRNA, gene panel)

IC50 (HTT mRNA [1]) [nM]	IC50 (MYB mRNA; [4]) [nM]	IC50 (MYB mRNA; [5]) [nM]	IC50 (SMN2 mRNA) [nM]	IC50 (Target C mRNA) [nM]	IC50 (HTT mRNA [2]) [nM]	Structure (SMILES)	AC50 (HTT mRNA [1]) [nM]	AC50 (MYB mRNA; [3]) [nM]
1000 to 10000	< 100	< 100	< 100	> 10000	1000 to 10000	Cc1cn2cc(NC(=O)c3ccc(N4CC[C@@H](N(C)C)C4)c4cn(C)nc34)cc(F)c2n1 (single isomer, unassigned) [Compound 350, 4-[3-(dimethylamino)pyrrolidin-1-yl]-N-{8-fluoro-2-methylimidazo[1,2-a]pyridin-6-yl}-2-methylindazole-7-carboxamide]	1000 to 10000	< 100
1000 to 10000	< 100	< 100	< 100	> 10000	1000 to 10000	Cc1cn2cc(NC(=O)c3ccc(N4CC[C@H](N(C)C)C4)c4cn(C)nc34)cc(F)c2n1 (single isomer, unassigned) [Compound 351, 4-[3-(dimethylamino)pyrrolidin-1-yl]-N-{8-fluoro-2-methylimidazo[1,2-a]pyridin-6-yl}-2-methylindazole-7-carboxamide]	1000 to 10000	< 100
100 to 1000	< 100	< 100	< 100	1000 to 10000	100 to 1000	Cc1cn2cc(NC(=O)c3ccc(N4CCN[C@@H](C)C4)c4cn(C)nc34)cc(F)c2n1 (single isomer, unassigned) [Compound 352]	100 to 1000	< 100
100 to 1000	< 100	< 100	< 100	1000 to 10000	100 to 1000	Cc1cn2cc(NC(=O)c3ccc(N4CCN[C@H](C)C4)c4cn(C)nc34)cc(F)c2n1 (single isomer, unassigned) [Compound 353]	100 to 1000	< 100
1000 to 10000	< 100	< 100	< 100	> 10000	1000 to 10000	CNC1CCN(c2ccc(C(=O)Nc3cc(F)c4nc(C)cn4c3)c3nn(C)cc23)C1 (stereo in doubt) [Compound 387, N-{8-fluoro-2-methylimidazo[1,2-a]pyridin-6-yl}-2-methyl-4-[(3R)-3-(methylamino)pyrrolidin-1-yl]indazole-7-carboxamide]	1000 to 10000	< 100
1000 to 10000	–	< 100	< 100	> 10000	> 10000	CNC1CCN(c2ccc(C(=O)Nc3cc(F)c4nc(C)cn4c3)c3nn(C)cc23)C1 (stereo in doubt) [Compound 388, (S)—N-(8-fluoro-2-methylimidazo[1,2-a]pyridin-6-yl)-2-methyl-4-(3-(methylamino)pyrrolidin-1-yl)-2H-indazole-7-carboxamide]	1000 to 10000	–
100 to 1000	< 100	< 100	< 100	> 10000	100 to 1000	Cc1cn2cc(NC(=O)c3c(F)cc(N4CCC(N(C)C)C4)c4cn(C)nc34)cc(F)c2n1 (stereo in doubt) [Compound 463, 4-[(3R)-3-(dimethylamino)pyrrolidin-1-yl]-6-fluoro-N-{8-fluoro-2-methylimidazo[1,2-a]pyridin-6-yl}-2-methylindazole-7-carboxamide]	100 to 1000	< 100
–	–	< 100	< 100	1000 to 10000	1000 to 10000	CCn1cc2c(N3CCNCC3)ccc(C(=O)Nc3cc(F)c4nc(C)cn4c3)c2n1 [Compound 288, 2-ethyl-N-{8-fluoro-2-methylimidazo[1,2-a]pyridin-6-yl}-4-(piperazin-1-yl)indazole-7-carboxamide]	–	–
–	–	< 100	< 100	< 100	< 100	Cc1cn2cc(NC(=O)c3c(F)cc(N4CCNCC4)c4cn(C)nc34)cc(F)c2n1 [Compound 361, 6-fluoro-N-{8-fluoro-2-methylimidazo[1,2-a]pyridin-6-yl}-2-methyl-4-(piperazin-1-yl) indazole-7-carboxamide]	–	–
–	–	< 100	< 100	< 100	< 100	C=Cn1cc2c(N3CCNCC3)ccc(C(=O)Nc3cc(F)c4nc(C)cn4c3)c2n1 [Compound 363, 2-ethenyl-N-{8-fluoro-2-methylimidazo[1,2-a]pyridin-6-yl}-4-(piperazin-1-yl) indazole-7-carboxamide]	–	–
–	–	> 10000	> 10000	> 10000	> 10000	Cc1cn2cc(N(C)C(=O)c3ccc(N4CCNCC4)c4cn(C)nc34)cc(F)c2n1 [Compound 386, N-{8-fluoro-2-methylimidazo[1,2-a]pyridin-6-yl}-N,2-dimethyl-4-(piperazin-1-yl) indazole-7-carboxamide]	–	–
–	–	< 100	< 100	100 to 1000	< 100	Cc1cn2cc(NC(=O)c3ccc(N4CCC5(CC4)CCN5C)c4cn(C)nc34)cc(F)c2n1 [Compound 422, N-{8-fluoro-2-methylimidazo[1,2-a]pyridin-6-yl}-2-methyl-4-{1-methyl-1,7-diazaspiro[3.5]nonan-7-yl}indazole-7-carboxamide; bis(trifluoroacetic acid)]	–	–
–	–	100 to 1000	< 100	1000 to 10000	1000 to 10000	CCOc1nc(NC(=O)c2ccc(N3CC[C@@H](NC)C3)c3cn(C)nc23)cn2cc(C)nc12 [Compound 433]	–	–
–	–	< 100	< 100	1000 to 10000	< 100	C=C(C)n1cc2c(N3CCNCC3)ccc(C(=O)Nc3cc(F)c4nc(C)cn4c3)c2n1 [Compound 440, N-{8-fluoro-2-methylimidazo[1,2-a]pyridin-6-yl}-4-(piperazin-1-yl)-2-(prop-1-en-2-yl) indazole-7-carboxamide]	–	–
–	–	< 100	< 100	100 to 1000	< 100	C/C=C/n1cc2c(N3CCNCC3)ccc(C(=O)Nc3cc(F)c4nc(C)cn4c3)c2n1 [Compound 445, N-{8-fluoro-2-methylimidazo[1,2-a]pyridin-6-yl}-4-(piperazin-1-yl)-2-[(1E)-prop-1-en-1-yl]indazole-7-carboxamide]	–	–
–	–	< 100	< 100	< 100	< 100	CCNC1CCN(c2cc(F)c(C(=O)Nc3cn4cc(C)nc4c(F)c3OC)c3nn(C)cc23)CC1 [Compound 471]	–	–
